What was measured:
[1] = biological target: T1, FPRL1 (Homo sapiens, UniProt P25090); assay: Competition binding on FPRL1-expressing CHO-K1 cells, tracer [125I]-WKYMVm; details: up to concentrations of 3 μM
T1 construct: expressed in transfected cells; host or cells: CHO-K1 (with or without Galpha16 and apoaequorin)
T1 sequence (P25090 1-351): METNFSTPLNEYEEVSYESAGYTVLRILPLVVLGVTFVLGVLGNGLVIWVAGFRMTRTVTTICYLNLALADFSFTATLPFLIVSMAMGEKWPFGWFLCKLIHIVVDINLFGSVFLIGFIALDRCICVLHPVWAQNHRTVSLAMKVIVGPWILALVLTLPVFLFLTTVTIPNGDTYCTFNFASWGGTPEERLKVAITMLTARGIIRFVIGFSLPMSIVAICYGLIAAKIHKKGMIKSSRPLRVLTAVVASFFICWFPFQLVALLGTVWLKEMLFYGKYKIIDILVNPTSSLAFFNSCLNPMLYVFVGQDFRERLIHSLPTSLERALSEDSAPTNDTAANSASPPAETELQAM
Experimental: FPRL2, FPRL1 and FPR-expressing CHO-K1 cells were plated in 24 wells plates (200,000 cells per well for FPRL2, and 100,000 cells per well for the two other receptors). The next day, the cells were washed twice with a KRH buffer containing 280 mM saccharose and, for FPRL1 and FPR, 0.1 % NaN3. […] Cells were washed twice with ice cold buffer, total radioactivity was recovered with 1 M […] and counted in a gamma counter for […]

[2] = test system: monocytes; assay: Ca2+ mobilization assay on monocytes; type: cell-based, human; details: 100 nM F2L; FIG. 13C
Experimental: Monocyte-derived DCs were generated either from the adherent fraction of PBMCs cultured with GM-CSF (800 U/ml) and […] (500 U/ml), or from Percoll-purified monocytes cultured with GM-CSF (50 ng/ml) and IL-13 (20 ng/ml), for 5 to 7 days. For Ca^2+ mobilization assay, monocytes were obtained by negative selection with the Monocyte Isolation Kit II (Miltenyi Biotec). […] For Ca^2+ mobilization assays, monocyte-derived DCs or monocytes (5×10^5 cells/ml in HBSS without phenol red but containing 0.1% BSA and 1 mM Probenecid (Sigma)) were loaded with 4 μM Fluo 4 (Molecular Probes) for 1 h at 20° C. in the dark. The loaded cells were washed twice, resuspended at 1 to 2×10^6 cells/ml and 50 μl of cell suspension was distributed per well of a 96 well plate (Viewplate, Packard Bioscience). Reading was performed in a Fluostar fluorimeter (BMG) at 25° C.: 50 μl of ligand-containing medium was injected, and the fluorescence at 520 nm was recorded every second for 1 to 3 min. Each condition was performed in triplicate, the mean fluorescence for each time point was calculated, and the curves were normalized by subtracting the mean value of the five measurements preceding the injection.

[3] = test system: wild-type CHO-K1 cells, ChemerinR and other GPCRs; assay: Aequorin-based assay on wild-type CHO-K1 cells and CHO-K1 cells expressing ChemerinR and other GPCRs; type: cell-based; details: data not shown
Text: The human coding sequences (accession numbers AC005946, M84562 and M60626, respectively) were amplified by PCR from human genomic DNA, cloned into the pcDNA3 (Invitrogen) and pEFIN3 (Euroscreen) vectors and sequenced. The pEFIN3 constructs were transfected, using Fugene 6, into CHO-K1 cells, expressing or not Gα16 and apoaequorin. G418-resistant clones were characterized for receptor expression by Northern blotting. A functional assay based on the luminescence of mitochondrial aequorin was performed as described (42). Results were expressed as relative light units (RLU) or as the percentage of the response to 20 μM ATP.

[4] = biological target: T2, FPRL2 (Homo sapiens, UniProt P25089); assay: cAMP accumulation assay (HTRF, forskolin) on FPRL2-expressing CHO-K1 cells; type: cell-based; design: expressed in transfected cells; host or cells: CHO-K1; details: CHO-K1 cells expressing FPRL2 but not G alpha 16; without forskolin
T2 sequence (P25089 1-353): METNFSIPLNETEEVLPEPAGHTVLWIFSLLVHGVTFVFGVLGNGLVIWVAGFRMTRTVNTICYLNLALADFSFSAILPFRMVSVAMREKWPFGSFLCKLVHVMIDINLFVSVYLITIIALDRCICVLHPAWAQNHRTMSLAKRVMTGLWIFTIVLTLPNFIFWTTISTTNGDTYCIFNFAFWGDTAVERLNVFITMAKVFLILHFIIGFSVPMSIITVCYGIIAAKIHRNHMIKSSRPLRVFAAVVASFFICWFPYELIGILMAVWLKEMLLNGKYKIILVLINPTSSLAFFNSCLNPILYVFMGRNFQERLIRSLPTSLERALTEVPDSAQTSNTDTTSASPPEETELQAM
Experimental: The cAMP concentrations were determined using a homogeneous time-resolved fluorescence (HTRF) kit (Cis Bio International). […] The reaction was stopped by the successive addition of cAMP-XL665 and anti-cAMP cryptate diluted in lysis buffer. The plates were incubated for 60 min at room temperature and read on a Rubystar fluorimeter (BMG). […] A calibration curve was obtained by plotting delta F % versus cAMP concentrations. […] The aequorin-based assay was performed with or without overnight pretreatment with 100 ng/ml Pertussis toxin. […] For FPRL2 polymorphism analysis, HEK cells were transiently transfected with empty and wild-type or Asp338H is FPRL2-containing pcdna vector using calcium phosphate method. Cells were recovered 48 hours later and used for FACS or cAMP experiments.

[5] = biological target: T2, FPRL2; assay: Cell surface FPRL2 on DCs by FACS after culture with F2L; type: cell-based; design: expressed in transfected cells; host or cells: CHO-K1; details: 1 μM F2L for 48 hours; not shown
Experimental: Antibodies were generated by injecting BALB/c mice with 100 μg pcDNA3-FPRL2 as described (45). Sera were tested by FACS on the CH0-K1-FPRL2 cell line, and immune mice were used to generate monoclonal antibodies by standard hybridoma technology, using the NSO myeloma cell line. The Ig class of selected hybridomas was determined with a mouse mAb isotyping kit (IsoStrip, Boehringer Mannheim). The antibodies were tested using flow cytometry, performed using anti-FPRL2 antibodies or control IgG2a at 1 μg/ml (for CHO-K1 cells) or 5 μg/ml (for primary cells) in PBS containing 0.1% BSA, 0.1% sodium azide, and FITC-conjugated γ-chain-specific goat anti-mouse IgG (Sigma) as secondary antibody. Fluorescence of 10,000 cells was assayed using a FACScan flow cytofluorimeter (Beckton Dickinson). Intracytoplasmic staining was realised using Cytoperm/Cytowash (Becton Dickinson) according to manufacturer's instructions.

CC[C@H](C)[C@H](NC(=O)[C@H](CCSC)NC(=O)CNC(=O)[C@H](CC(C)C)NC(=O)[C@H](CCSC)NC(C)=O)C(=O)N[C@@H](CCCCN)C(=O)N[C@@H](CC(N)=O)C(=O)N[C@@H](CO)C(=O)N[C@@H](CC(C)C)C(=O)N[C@@H](Cc1ccccc1)C(=O)NCC(=O)N[C@@H](CO)C(=O)N[C@H](C(=O)N[C@@H](CCC(=O)O)C(=O)N[C@H](C(=O)N[C@@H](Cc1c[nH]c2ccccc12)C(=O)N1CCC[C@H]1C(=O)N[C@@H](Cc1c[nH]c2ccccc12)C(=O)N[C@@H](CCC(N)=O)C(=O)N[C@H](C(=O)N[C@@H](CC(C)C)C(=O)O)C(C)C)[C@@H](C)O)C(C)C [F2L]
competition for FPRL1 binding [1]: no competition
calcium mobilization in purified monocytes [2]: Calcium mobilization was also observed
activity on all other cell lines tested [3]: completely inactive
stimulation of cAMP production by itself [4]: unable to stimulate cAMP production
cell surface FPRL2 on DCs [5]: down regulation
